From patent US6734187B1, “Purine derivatives and medicaments comprising the same as active ingredient” (Mitsubishi Chemical Corporation, priority 1997, dated 2004) come the findings set out here.

Usually IC50 stands for the concentration needed to halve the response being measured. The term melting point denotes the temperature, or range, at which the solid turns liquid.

Data set [1] deals with Type IV Phosphodiesterase (PDE IV). In words: Effect on enzymatic activity of type IV phosphodiesterase (PDE IV). The format is biochemical. Conditions: crude enzyme from cytoplasmic fraction of human monocyte-like cell strain U937; 3H-cAMP substrate, 30° C., 15 minutes; read-out: PDE IV Inhibitory Activity: IC50. Here is the method:
PDE IV inhibitory activity of the compounds of the present invention was examined. […] Adv.
Effect on Enzymatic Activity of Type IV Phosphodiesterase (PDE IV)
After a test compound was added, the reaction mixture was incubated at 30° C. for 15 minutes, and then added with the substrate.

In turn, `COc1ccc(Cn2cnc3ncnc(Oc4cccnc4)c32)cc1OC1CCCC1` [compound 139] showed a melting point of 134 to 135 °C. In addition, the IC50 in data set [1] turned out to be 54 nM.
As for `CCNc1nc(Cl)nc2c1ncn2Cc1ccc(OC)c(OC2CCCC2)c1` [compound 134], the melting point was in the range of 129 to 131 °C. Also, the IC50 in data set [1] was determined as 41 nM.
For `COc1ccc(Cn2c(C)nc3cnc(NCc4ccc(OCC(F)(F)F)nc4)nc32)cc1OC1CCCC1` [compound 77], in that order: 125 to 127 °C and 0.83 nM.
For `CCNc1nc(OCCCc2ccncc2)nc2c1ncn2Cc1ccc(OC)c(OC2CCCC2)c1` [compound 83], in that order: 127 to 128 °C and 0.69 nM.
The matching figures for `COc1ccc(Cn2cnc3c(N(C)C)nc(NCc4cccnc4)nc32)cc1OC1CCCC1` [compound 104]: 112 to 114 °C and 1.1 nM.
Regarding `COc1ccc(Cn2cnc3c(N)nc(OCCCc4ccncc4)nc32)cc1OC1CCCC1` [compound 66], the melting point lay within 152 to 153 °C. Further, in data set [1], the IC50 stood at 1.4 nM.
The matching figures for `CCCNc1nc(OCCCc2ccncc2)nc2c1ncn2Cc1ccc(OC)c(OC2CCCC2)c1` [compound 93]: 130 to 131 °C and 0.44 nM.
For `COc1ccc(Cn2c(C)nc3c(C)nc(OCc4ccncc4)nc32)cc1OC1CCCC1` [compound 95], in that order: 125 to 126 °C and 1.7 nM.
Take `CNc1nc(OCCCc2ccncc2)nc2c1ncn2Cc1ccc(OC)c(OC2CCCC2)c1` [compound 72]: the melting point lay in the range of 138 to 140 °C. The IC50 in data set [1] is 0.75 nM.
As to `COc1ccc(Cn2c(C)nc3c(C)nc(SCc4cccnc4)nc32)cc1OC1CCCC1` [compound 119], the melting point is 116 to 117 °C. Also, in data set [1], the IC50 worked out at 0.64 nM.
The matching figures for `COc1ccc(Cn2cnc3cnc(NCc4cccs4)nc32)cc1OC1CCCC1` [compound 41]: 141 to 142 °C and 0.47 nM.
In the case of `COc1ccc(Cn2c(C)nc3c(C)nc(OCc4cc[n+]([O-])cc4)nc32)cc1OC1CCCC1` [compound 102], the melting point lay within 157 to 158 °C. In addition, the IC50 in data set [1] was 15 nM.
The matching figures for `COc1ccc(Cn2cnc3ncnc(OCc4cccnc4)c32)cc1OC1CCCC1` [compound 137]: 143 to 145 °C and 64 nM.
The matching figures for `CCNc1nc(OCCCc2cc[n+]([O-])cc2)nc2c1ncn2Cc1ccc(OC)c(OC2CCCC2)c1` [compound 122]: 85 to 88 °C and 15 nM.
The matching figures for `COc1ccc(Cn2c(C)nc3cnc(OCCCc4ccncc4)nc32)cc1OC1CCCC1` [compound 56]: 115 to 117 °C and 1.3 nM.
Turning to `CCNc1nc(OCc2cccnn2)nc2c1ncn2Cc1ccc(OC)c(OC2CCCC2)c1` [compound 96, 9-[(3-cyclopentyloxy-4-methoxy)benzyl]-6-ethylamino-2-[(3-pyridazinyl)methyloxy]purine], the melting point lay in the range of 121 to 122 °C. Besides, the IC50 in data set [1] came out at 3.8 nM.
For `COc1ccc(Cn2c(C)nc3c(C)nc(OCc4cc(C)nn4C)nc32)cc1OC1CCCC1` [compound 112], in that order: 112 to 123 °C and 0.22 nM.
For `COc1ccc(Cn2cnc3c(C)nc(NCc4ccncc4)nc32)cc1OC1CCCC1` [compound 84], in that order: 137 to 138 °C and 1.9 nM.
Turning to `COc1ccc(Cn2c(C)nc3cnc(OCc4cccnc4)nc32)cc1OC1CCCC1` [compound 36], in data set [1], the IC50 is 2.6 nM.
Regarding `COc1ccc(Cn2c(C)nc3c(C)nc(NCc4cccnn4)nc32)cc1OC1CCCC1` [compound 113], the melting point fell in the range of 164 to 166 °C. Besides, the IC50 in data set [1] was 24 nM.
Take `COc1ccc(Cn2c(C)nc3cnc(NCc4cccnc4)nc32)cc1OC1CCCC1` [compound 37]: in data set [1], the IC50 was 1 nM.
Turning to `COc1ccc(Cn2cnc3c(N(C)C)nc(OCCCc4ccncc4)nc32)cc1OC1CCCC1` [compound 82], the melting point lay within 78 to 80 °C. The IC50 in data set [1] is 0.82 nM.
For `COc1ccc(Cn2cnc3c(N(C)C)nc(OCc4ccoc4)nc32)cc1OC1CCCC1` [compound 88], in that order: 92 to 93 °C and 0.2 nM.
`COc1ccc(Cn2cnc3c(OCc4cccnc4)ncnc32)cc1OC1CCCC1` [compound 2]: the concentration for half-maximal inhibition (IC50) in data set [1] came to 8.9 nM.
In turn, `COc1ccc(Cn2cnc3cnc(OCCCc4ccncc4)nc32)cc1OC1CCOC1` (centres unmarked) [compound 55] registered a melting point of 128 to 130 °C. In data set [1], the IC50 was 4.5 nM.
